Test results taken from paper PMC3070799 (Neuropharmacology, 2011).
Where two headings read alike, the source gives them in different places.

Columns and labels:
human 5-HT3AB receptors = molecular target: T1, human 5-HT3AB receptors (Homo sapiens, UniProt O95264+P46098); format: binding
T1 construct: expressed in transfected cells; host or cells: Xenopus laevis oocytes (cRNA from pGEMHE)
T1 sequence (P46098 24-478): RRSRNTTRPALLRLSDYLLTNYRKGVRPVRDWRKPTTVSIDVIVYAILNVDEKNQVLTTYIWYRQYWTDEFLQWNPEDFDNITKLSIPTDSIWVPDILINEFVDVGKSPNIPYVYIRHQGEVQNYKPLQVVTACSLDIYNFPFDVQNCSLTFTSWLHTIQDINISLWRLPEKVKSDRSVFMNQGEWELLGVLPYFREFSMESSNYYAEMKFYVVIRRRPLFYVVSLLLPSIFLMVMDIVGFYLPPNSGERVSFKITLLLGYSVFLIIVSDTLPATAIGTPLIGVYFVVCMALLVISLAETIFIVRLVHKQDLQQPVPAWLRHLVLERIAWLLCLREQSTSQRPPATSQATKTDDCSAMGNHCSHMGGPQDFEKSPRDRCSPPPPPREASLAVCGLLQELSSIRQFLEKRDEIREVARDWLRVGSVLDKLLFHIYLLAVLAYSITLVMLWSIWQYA
T1 sequence (O95264 22-441): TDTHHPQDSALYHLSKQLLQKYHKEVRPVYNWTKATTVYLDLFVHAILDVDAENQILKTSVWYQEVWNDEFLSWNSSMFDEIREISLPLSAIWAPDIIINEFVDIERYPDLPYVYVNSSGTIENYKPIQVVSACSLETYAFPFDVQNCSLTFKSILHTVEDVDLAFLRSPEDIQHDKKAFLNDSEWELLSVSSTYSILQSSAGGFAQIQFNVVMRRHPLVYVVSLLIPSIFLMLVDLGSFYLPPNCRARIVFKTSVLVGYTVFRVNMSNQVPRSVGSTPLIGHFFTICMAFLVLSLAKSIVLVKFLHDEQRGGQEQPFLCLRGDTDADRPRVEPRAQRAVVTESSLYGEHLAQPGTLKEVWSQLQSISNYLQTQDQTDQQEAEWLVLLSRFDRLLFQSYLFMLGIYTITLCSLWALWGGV
Procedure: (§1) Human embryonic kidney (HEK) 293 cells were maintained on 90 mm tissue culture plates at 37 °C and 7% CO2 in a humidified atmosphere. They were cultured in DMEM:F12 with GlutaMAX™ I media (Dulbecco’s Modified Eagle’s Medium /Nutrient Mix F12 (1:1), Invitrogen, Paisley, UK) containing 10% foetal calf serum. For radioligand binding studies, cells in 90 mm dishes were transfected using polyethyleneimine (PEI): 30 μl PEI (1 mg /ml), 5 μl cDNA and 1 ml DMEM were incubated for 10 min at room temperature, added drop wise to a 80–90% confluent plate, and incubated for 3–4 days before use.
(§2) Competition binding (8 point) was performed on at least three separate plates of transfected cells. […] Reactions were incubated for at least 1 h at 4 °C and terminated by vacuum filtration using a Brandel cell harvester onto GF/B filters pre-soaked in 0.3% polyethyleneimine. Radioactivity was determined by scintillation counting using a Beckman BCLS6500 (Fullerton, California, USA). Data were analysed by iterative curve fitting (GraphPad Prism v3.02) according to the equation:(5) BL=Bmin+Bmax−Bmin/1+10^nH(logL50−logL) where L is the concentration of ligand present; BL is the binding in the presence of ligand concentration L; Bmin is the binding when L = 0; Bmax is the binding when L = ∞, L50 is the concentration of L which gives a binding equal to (Bmax + Bmin)/2; and nH is the Hill coefficient. Results are presented as mean ± S.E.M.. Statistical analysis was performed using ANOVA in conjunction with a Dunnett’s post-hoc test.

human 5-HT3A receptors = molecular target: T2, human 5-HT3A receptors (Homo sapiens, UniProt P46098); format: binding
T2 construct: expressed in transfected cells; host or cells: Xenopus laevis oocytes (cRNA from pGEMHE)
T2 sequence (P46098 24-478): T1 sequence (P46098 24-478)
Procedure: as §1, §2

mouse 5-HT3AB = molecular target: T3, mouse 5-HT3AB (Mus musculus, UniProt P23979+Q9JHJ5); test: Granisetron competition binding
T3 construct: expressed in transfected cells
T3 sequence (P23979 24-483 isoform P23979-2 limits assumed): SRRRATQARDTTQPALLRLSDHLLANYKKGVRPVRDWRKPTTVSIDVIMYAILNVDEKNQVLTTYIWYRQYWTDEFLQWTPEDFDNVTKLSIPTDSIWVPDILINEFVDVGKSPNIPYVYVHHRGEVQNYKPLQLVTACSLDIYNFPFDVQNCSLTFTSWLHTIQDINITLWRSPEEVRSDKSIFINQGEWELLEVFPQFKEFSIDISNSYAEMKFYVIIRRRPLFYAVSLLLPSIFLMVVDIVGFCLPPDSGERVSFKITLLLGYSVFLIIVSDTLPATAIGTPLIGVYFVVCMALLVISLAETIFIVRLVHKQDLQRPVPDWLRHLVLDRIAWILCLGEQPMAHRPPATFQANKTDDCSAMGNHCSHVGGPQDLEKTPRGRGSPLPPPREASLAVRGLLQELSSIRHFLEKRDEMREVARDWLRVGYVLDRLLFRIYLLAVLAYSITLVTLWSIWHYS
T3 sequence (Q9JHJ5 22-437): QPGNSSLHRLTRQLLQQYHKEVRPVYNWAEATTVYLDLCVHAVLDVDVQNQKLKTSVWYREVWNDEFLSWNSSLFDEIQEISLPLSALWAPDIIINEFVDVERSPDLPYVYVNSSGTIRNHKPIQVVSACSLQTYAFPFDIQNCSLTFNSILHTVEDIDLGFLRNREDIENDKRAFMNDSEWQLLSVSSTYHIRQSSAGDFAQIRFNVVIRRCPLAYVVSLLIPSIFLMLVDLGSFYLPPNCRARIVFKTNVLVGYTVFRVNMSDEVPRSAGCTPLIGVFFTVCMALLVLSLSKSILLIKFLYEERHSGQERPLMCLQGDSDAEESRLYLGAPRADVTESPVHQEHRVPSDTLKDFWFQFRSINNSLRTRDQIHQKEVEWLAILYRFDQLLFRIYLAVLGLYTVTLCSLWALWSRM
Procedure: as §2

mouse 5-HT3A = molecular target: T4, mouse 5-HT3A (Mus musculus, UniProt P23979); test: Granisetron competition binding
T4 construct: expressed in transfected cells
T4 sequence (P23979 24-483 isoform P23979-2 limits assumed): T3 sequence (P23979 24-483 isoform P23979-2 limits assumed)
Procedure: as §2

glycine α1 receptors = molecular target: glycine α1 receptors; design: method as in Yang et al., 2007; details: ref Yang et al., 2007; cited from earlier work
GABAA receptor = system: GABAA receptor; design: method as in earlier work; details: more potent than PTN; ref Chen et al., 2006; Curtis and Johnston, 1974; Yang et al., 2007; cited from earlier work
glycine α1β receptors = molecular target: glycine α1β receptors; design: method as in Yang et al., 2007; details: ref Yang et al., 2007; cited from earlier work
glycine α2 receptors = system: glycine α2 receptors; design: method as in earlier work; details: more potent than PTN; ref Chen et al., 2006; Curtis and Johnston, 1974; Yang et al., 2007; cited from earlier work

Compound	Effect on binding of [3H]granisetron (1 nM) (human 5-HT3AB receptors)	Effect on binding of [3H]granisetron (1 nM) (human 5-HT3A receptors)	Displacement of granisetron (0.5 nM) (mouse 5-HT3AB; compound 2.5 mM)	Displacement of granisetron (0.5 nM) (mouse 5-HT3A; compound 2.5 mM)	Effect on binding of [3H]granisetron (1 nM) (human 5-HT3AB receptors; compound 5 mM)	Effect on binding of [3H]granisetron (1 nM) (human 5-HT3A receptors; compound 5 mM)	IC50 (glycine α1 receptors) [µM]	potency relative to PTN (GABAA receptor) [fold]	IC50 (glycine α1β receptors) [µM]	Displacement of granisetron (0.5 nM) (mouse 5-HT3AB; compound 5 mM)	Displacement of granisetron (0.5 nM) (mouse 5-HT3A; compound 5 mM)	potency relative to PTN (glycine α2 receptors) [fold]	Effect on binding of [3H]granisetron (1 nM) (human 5-HT3AB receptors; compound 2.5 mM)	Effect on binding of [3H]granisetron (1 nM) (human 5-HT3A receptors; compound 2.5 mM)
CC(C)(C)[C@]1(O)CC2OC(=O)CC23C(=O)OC2OC(=O)[C@H](O)C231 (stereo partly shown) [BB, bilobalide]	not affected	not affected	not displaced	not displaced										
C=C(C)[C@@H]1[C@H]2OC(=O)[C@@H]1[C@]1(O)C[C@H]3O[C@]34C(=O)O[C@H]2[C@]14C [PXN, picrotoxinin]					not affected	not affected	~5	~50	~30	not displaced	not displaced	~30		
ginkgolide B [GB]			not displaced	not displaced									not affected	not affected
